The test system of assay [1] is BORIS. Briefly: ADP ribosylation of BORIS under olaparib. Format: cell-based. To be noted: PARP inhibitor incubation.
Procedure: HeLa or H1299 cells were lysed in immunoprecipitation (IP) buffer (50 mM Tris–HCl pH 7.4, 150 mM NaCl, 1% NP-40, 1 mM EDTA, 5% glycerol) containing protease inhibitor cocktails. The cell lysates were incubated with mouse anti-Myc (CST, 2276) or rabbit anti-poly/mono-ADP Ribose (E6F6A) monoclonal antibody (CST, 83732) on a rotary shaker at 4 °C overnight. Mouse or rabbit IgG (Santa Cruz, sc-2025 or sc2027) was used as a negative control for detecting the pull-down specificity. Protein G beads (Santa Cruz, sc-2001) or protein A beads (Santa Cruz, sc-2002) were added and incubated at room temperature for 2 h. The agarose beads were collected by centrifugation, washed five times with IP buffer according to the manufacturer’s instructions, and eluted in SDS sample buffer for the subsequent Western blotting assay.
Assay [2] concerns PARP2. To be noted: ref [33], [49]; cited from earlier work.
In assay [3] the test system is BORIS-N198-228 peptide. Put plainly: PARP1-catalyzed in vitro PARylation assay. The format is biochemical. The conditions noted are these: recombinant PARP1, ssDNA, 37 °C 30 min, dot blot anti-ADPr. On the procedure:
Peptides (1–4 μg) incubated with different samples were added to 50 μL PARP1 reaction buffer (50 mM Tris–HCl at pH 7.4, 2 mM MgCl2, 200 μM NAD^+), which contained 0.2 μg of recombinant PARP1 (Trevigen, 4668–100-01) and 2.5 μg of ssDNA (Sigma, D8899), and reaction was carried out at 37 °C for 30 min. Low molecular weight peptide and PARP1 protein in the reactions were separated by a 30 kDa cutoff centrifugal filter (Millipore, UFC803096). Then, SDS loading buffer was added to separate peptides or proteins and analyzed by dot blotting using an anti- ADP ribosylation (ADPr) antibody.
To further confirm ADP ribosylation at residues 198–228, the synthesized BORIS-N198-228 peptide was subjected to a PARP1-catalyzed in vitro PARylation assay. Single-strand DNA (ssDNA) was added to activate PARP1. The BORIS-N198-228 peptide was separated by centrifugal filtration, and its PARylation levels were examined by dot blotting using an anti-ADPr antibody. […] To determine the modification between residues 198–228, the BORIS-N198-228 peptide was pre-incubated with BTApep-TAT or His-TAT before processing for PARP1-catelyzed in vitro PARylation. […] Taken together, we provided evidence that ADP ribosylation of BORIS was responsible for the association with Ku70 and DNA repair. […]

Assay [4] concerns H1299 cells. Briefly: Proliferation of H1299 cells (MTT, cell counting). Format: cell-based. To be noted: 25 µM (Fig. 2D). The method, then: (§1) H1299 cells (RRID: CVCL_0060) were cultured in RPMI 1640 medium supplemented with 10% FBS. HEK293 (RRID:CVCL_0045) and HeLa (RRID:CVCL_0030) cells were cultured in Dulbecco's modified Eagle’s medium (DMEM) supplemented with 10% FBS and placed in 37 ℃ and 5% CO2 incubators. Cells were seeded in 6-well plates at 1 × 10^5 cells/well or in 96-well plates at 2000 cells/well for experiments. Cell viability was measured by MTT assay.
(§2) Cells were plated and treated with BORIS-targeted peptide (BTApep-TAT) or negative control peptide (His-TAT) at concentrations of 10 µM, 25 µM, 50 µM and 100 µM for 3 days. Cell viability was measured by MTT assay. Cell apoptosis was measured by TUNEL assay (cat. # 40306ES20, Yeasen Biotech Co., Ltd) and Caspase-Glo 3/7 assay (G8090, Promega Corporation, an affiliate of Promega (Beijing) Biotech Co., Ltd.).

In assay [5] the test system is HEK293 cells. Put plainly: Proliferation of HEK293 cells. Format: cell-based. To be noted: 25 µM (Fig. 2D); normal cells not expressing BORIS. On the procedure: as §1, §2
The target in assay [6] is T1, BORIS-N1-258 (Homo sapiens, UniProt Q8NI51).
T1 construct: The N terminal section of BORIS corresponding to AA 1–258 (BORIS-N1-258); 6xHis (C); made in house
T1 sequence (Q8NI51 1-258): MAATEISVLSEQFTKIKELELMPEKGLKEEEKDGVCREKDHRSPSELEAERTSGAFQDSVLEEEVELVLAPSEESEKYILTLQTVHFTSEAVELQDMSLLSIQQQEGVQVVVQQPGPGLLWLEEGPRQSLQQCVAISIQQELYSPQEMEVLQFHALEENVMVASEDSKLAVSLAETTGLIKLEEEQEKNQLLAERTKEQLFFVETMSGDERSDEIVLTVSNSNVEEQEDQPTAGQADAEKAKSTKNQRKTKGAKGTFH
Put plainly: BLI, BORIS-N1-258 immobilized on SSA sensor, free peptide in solution. The format is binding. The conditions noted are these: free peptide in PBS with 0.02% Tween 20. On the procedure:
Twelve tandemly connected His was synthesized and conjugated with biotin or FITC as a negative control peptide by China Peptides Co., Ltd. The peptides were stored in powder at -80 °C. The peptides were dissolved in phosphate-buffered saline and filtered through a 0.22 µm filter to remove bacteria before use. The interaction between peptides and BORIS-N1-258 was measured by Bio-layer interferometry (BLI) in the ForteBio OctetRed system. The measurement was carried out in 5 steps: initial baseline duration, loading duration, baseline duration, association duration, and dissociation duration. In loading duration, 10 nM biotinylated peptides or 1 µM BORIS-N1-258 protein were immobilized on streptavidin-coated biosensors (ForteBio). The immobilization typically reached a response level of 4 nm. Association and dissociation curves were obtained through the addition of a dilution series of BORIS-N1-258 or peptides in PBS with 0.02% Tween 20 for the indicated period of time using Octet acquisition software. The binding data were fitted using Octet analysis software.
The BORIS-N1-258 protein was conjugated with biotin and loaded onto an SSA sensor. The synthesized peptides were dissolved in PBS with 0.02% Tween 20.
Background: BLI is a label-free optical method that tracks binding on a fibre tip over time.

Assay [7] addresses T2, BORIS N-terminal region AA 1-258 (BORIS-N_(1-258)), His-tagged, from bacteria (human, UniProt Q8NI51 1-258, biotin (conjugated for loading onto the SSA sensor; position not stated; not said of the protein used free in solution or coated on plates)).
T2 construct: Cloned in the backbone of plasmid pFN6K; also called BORIS antigen; not shown: His6, C-terminal, kept
T2 sequence (looked up): T1 sequence (Q8NI51 1-258)
Put plainly: BLI; ForteBio OctetRed; biotin-labeled peptide 9 loaded onto an SA sensor (10 nM in loading), dilution series of BORIS-N_(1-258) in PBS with 0.02% Tween 20. To be noted: both partners purified.

For assay [8], the target named is T3, BORIS-N_(1-258) expressed and purified from HEK293 cells (human, UniProt Q8NI51 1-258).
T3 construct: source: HEK293 cells, expressed and purified
T3 sequence (looked up): T1 sequence (Q8NI51 1-258)
The description is as above. To be noted: both partners purified.

The target of assay [9] is T2, BORIS N-terminal region AA 1-258 …. Briefly: BLI; ForteBio OctetRed; biotin-conjugated BORIS-N_(1-258) loaded onto an SSA sensor (1 µM in loading), free peptide in solution in PBS with 0.02% Tween 20. To be noted: both partners purified.
The target is the same in assay [10]. Briefly: ELISA; plates coated overnight at 4 °C with purified His-tagged BORIS-N_(1-258) (carbonate buffer, pH 9.6); purified phage clones in serial dilutions, 2 h at RT; detection by HRP-conjugated anti-M13 antibody. The conditions noted are these: both partners purified.

Where no end group is shown, it is not given here.

As to `O=C(c1cc(Cc2n[nH]c(=O)c3ccccc23)ccc1F)N1CCN(C(=O)C2CC2)CC1` [Olaparib, olaparib], the “effect on ADP ribosylation of BORIS” value in assay [1] was “did not attenuate ADP ribosylation of BORIS”. Moreover, in [2], the “inhibition of PARP2” value is on record as “inhibits”.
For “BORIS-N198-228 peptide: synthesized peptide of BORIS residues 198–228 (EQLFFVETMSGDERSDEIVLTVSNSNVEEQE; UniProt Q8NI51 198-228, looked up, fragment)”, in [3], the “PARylation of the peptide itself” value is “accumulated in proportion to its abundance”.
For “BTApep: BORIS-targeted peptide lacking the TAT penetrating peptide (VHWDFRQWWQPS)”, in assay [4], the “suppression of proliferation of H1299 cells” value is recorded as “did not inhibit cell proliferation”. Moreover, the “suppression of proliferation of HEK293 cells” value in assay [5] is recorded as “did not inhibit cell proliferation”.
Take DWSSWVYRDPQT [Peptide 2]: the Kd in assay [6] (bacterial BORIS-N1-258 on SSA sensor, read-out: binding affinity (Kd)) worked out at 315 µM.
As to RFDHWVWQSQPW [Scrambled peptide 9], in assay [6] (result in words, BORIS-N1-258 on SSA sensor), the “affinity in BLI” value was “did not have any measurable affinity”.

B1: Peptide 9 labeled with biotin (peptide)
peptide: VHWDFRQWWQPS
modifications: also: biotin (position not given here)
notes: 12-mer selected from the Ph.D.-12 phage display peptide library; also called BTApep-biotin; biotinylated peptide 9; source: synthetic peptide (China Peptides Co., Ltd.)
On to B1, for which the values for the Kd in [7] and in assay [8] were 0.0053 µM and 0.00637 µM, respectively.

B2: Peptide 9 (synthesized, free in solution) (peptide)
peptide: VHWDFRQWWQPS
notes: 12-mer selected from the Ph.D.-12 phage display peptide library; The methods say that the peptides were synthesized and conjugated with biotin or FITC; also called peptide from phage clone 9; BTApep; source: synthetic peptide (China Peptides Co., Ltd.)
In turn, B2 came in with a Kd in [9] of 86.4 µM.

B3: Phage clone 9 (peptide 9 displayed on phage) (peptide)
chain: VHWDFRQWWQPSGGGS
notes: 4 amino acid spacer that links the 12-mer to the N-terminus of a phage coat protein; Whole phage particle; source: purified phage clone from the Ph.D.-12 Phage Display Peptide Library (New England Biolabs); not shown: phage coat protein (Ph.D.-12 library), C-terminal, kept
For B3, in assay [10], the binding result is listed as “binds”.

B4: Peptide 2 (peptide)
peptide: DWSSWVYRDPQT
notes: 12-mer selected from the Ph.D.-12 phage display peptide library; source: synthetic peptide (China Peptides Co., Ltd.)
B4: in [9], the Kd is 314 µM.

What is called Kd is the equilibrium constant for the complex coming apart.

The values above are taken from PMC9344678, “BTApep-TAT peptide inhibits ADP-ribosylation of BORIS to induce DNA damage in cancer” (Molecular Cancer, 2022).
